From patent US20020006954A1, “Desmethyl tocopherols for preventing or slowing degenerative neurological diseases” (Oklahoma Medical Research Foundation, priority 2000, published 2002)
Like-named read-outs stand apart in the source and are kept apart here.

What was measured:
[1] = test system: α-ketoglutarate dehydrogenase (αKGDH); assay: Protection of αKGDH activity in rat brain mitochondria exposed to SIN-1; format: biochemical
Description: FIG. 5 is a graph showing rat brain mitochondria were exposed to 0.4 mM SIN-1 for 1 H after addition of tocopherol. (.) α-toc; (▪) γ-toc. The scale bars labeled [α]norm and [γ]norm indicate the normal endogenous quantities of α-toc and γ-toc, respectively, in human brain.
Mitochondria were isolated from adult rat brain then sonicated briefly in the presence of either αT or γT, or an ethanol vehicle. Mitochondria were then exposed to SIN-1, which generates NO and superoxide simultaneously at a known rate (7). Combination of NO and superoxide yields ONOO^− in situ (discussed above). Enzyme activity is destroyed by peroxynitrite and superoxide but not by NO (19).

[2] = test system: Primary cortical rat neurons; assay: Neurotoxicity assay, cortical neurons exposed to SNP, LDH release; format: cell-based; conditions: SNP 10 μM, 24 hours
Description: Cerebrocortical neurons were exposed to the indicated concentration of SNP for 24 hours. Viability was assessed by release of lactate dehydrogenase (LDH) by nonviable cells.
γ-Tocopherol was further assessed for protective ability in a neurotoxicity assay where nitrative stress was imposed. […] Media was removed and cells were then washed and medium was replaced with fresh, tocopherol-free medium.

C3H/10T½ fibroblasts = conditions: methylcholanthrene-treated C3H/10T½ fibroblasts; cited from earlier work
[3] = liposomes exposed to ONOO−; cited from earlier work
systemic lipid oxidation = conditions: rats fed tocopherol two weeks after iron-dextran; cited from earlier work
occlusive thrombus = conditions: rats, cited from earlier work; for delay of time to occlusive thrombus: 29% FeCl3 patch on abdominal aorta
platelet aggregation = conditions: rats, 100 mg/kg/day for 10 days; cited from earlier work
[4] = cited from earlier work; for increase of own plasma tocopherol level above baseline: rats, 100 mg/kg/day for 10 days
superoxide dismutase = conditions: rats; cited from earlier work
endothelial cells = conditions: cited from earlier work
[5] = cited from earlier work; for effect of αT supplementation on systemic γT: oral supplementation
Alzheimer's Disease = conditions: one clinical study; cited from earlier work
[6] = rat brain mitochondria, 400 μM SIN-1, 1 h

## Cc1c(O)cc2c(c1C)O[C@](C)(CCC[C@H](C)CCC[C@H](C)CCCC(C)C)CC2 [γT, gamma tocopherol]
[1]; 400 μM SIN-1
  concentration offering as much protection as 1-10 μM of αT: 50 to 100 nM
[1]; at all concentrations tested
  protection of αKGDH in side-by-side comparison: more protective than αT
[1]; concentrations near 100 nM, 400 μM SIN-1
  protection of αKGDH relative to the corresponding concentration of αT: approximately 5 times
[1]; [6]
  maximal protection of αKGDH relative to maximal protection by αT: approximately 2.5 times
  tocopherol concentration of maximal protection of αKGDH: about 1 μM
[2]; 200 nM tocopherol
  protection of neurons from SNP toxicity (LDH release): significantly protected
C3H/10T½ fibroblasts
  inhibition of neoplastic transformation relative to αT: 4 fold
[3]
  inhibition of lipid hydroperoxide formation relative to αT: twice as effective
Systemic lipid oxidation
  effectiveness at inhibiting systemic lipid oxidation relative to αT: approximately 35%
Occlusive thrombus; 100 mg/kg/day for 10 days
  delay of time to occlusive thrombus: 65%
  inhibition of iron-induced lipid peroxidation and occlusive thrombus: significantly more effective than αT supplementation
Occlusive thrombus
  potency relative to αT at inhibition of thrombogenic correlates, referred to plasma tocopherol concentrations: 20-30 times
Platelet aggregation
  inhibition of platelet aggregation kinetics relative to αT supplementation: 2 fold
[4]
  increase of own plasma tocopherol level above baseline: 6 fold
[4]; γT supplemented rats
  plasma γT concentration as percent of the γT concentration (so in the source): ≤ 10%
Superoxide dismutase
  superoxide dismutase activity in aortas compared to the αT treated group: increased significantly
Endothelial cells
  incorporation into endothelial cells: more rapidly than is αT
[5]; in vivo
  absorption by the gut: absorbed equally well
  packaging into lipoproteins: less effectively than αT

## Nc1c[n+](N2CCOCC2)no1 [SIN-1, reference compound]
[1]; 400 μM SIN-1, one hour, rat brain mitochondria
  decrease of αKGDH activity: approximately 50%

## Cc1c(C)c2c(c(C)c1O)CC[C@@](C)(CCC[C@H](C)CCC[C@H](C)CCCC(C)C)O2 [αT, alpha tocopherol, reference compound]
[1]; 400 μM SIN-1
  concentration offering as much protection as 50-100 nM of γT: 1 to 10 µM
[1]; [6]
  tocopherol concentration of maximal protection of αKGDH: about 1 μM
[2]; 10 μM tocopherol
  protection of neurons from SNP toxicity (LDH release): ineffective
Occlusive thrombus; 100 mg/kg/day for 10 days
  delay of time to occlusive thrombus: 25%
[4]
  increase of own plasma tocopherol level above baseline: 2 fold
[5]; in vivo
  absorption by the gut: absorbed equally well
[5]
  effect of αT supplementation on systemic γT: decreases systemic γT concentration
[5]; listed as α-tocopherol
  effect of αT supplementation on systemic γT: depletes the human body of γ-tocopherol
Alzheimer's Disease
  effect on progression of Alzheimer's Disease: decreases the progression of Alzheimer's Disease (AD) marginally
